Measurements taken from ChEMBL document CHEMBL4043087 (J Med Chem, 2017).

Columns and labels:
Mus musculus [1] = assay: Anesthetic activity in iv dosed ICR mouse assessed as recovery time of righting reflex by measuring the ability to grip and climb a steel frame and ambulated normally administered 7 to 8 doses at 10 secs for each dose; assay type: functional
Rattus norvegicus [2] = organism: Rattus norvegicus; assay: Displacement of [35S]TBPS from GABAA receptor in Wistar rat cerebral cortex membranes after 3 hrs by scintillation counting method; settings: Membrane
Rattus norvegicus [3] = organism: Rattus norvegicus; assay: Displacement of [35S]TBPS from GABAA receptor in Wistar rat cerebral cortex membranes at 10 uM after 3 hrs by scintillation counting method; settings: Membrane
Mus musculus [4] = assay: Anesthetic activity in iv dosed ICR mouse assessed as dose required to produce 10 min of anesthesia administered 7 to 8 doses at 10 secs for each dose; assay type: functional
Rattus norvegicus [5] = organism: Rattus norvegicus; assay: Displacement of [35S]TBPS from GABAA receptor in Wistar rat cerebral cortex membranes at 1 uM after 3 hrs by scintillation counting method; settings: Membrane
Mus musculus [6] = assay: Anesthetic activity in iv dosed ICR mouse assessed as anesthetic duration time administered 7 to 8 doses at 10 secs for each dose; assay type: functional
Mus musculus [7] = assay: Anesthetic activity in iv dosed ICR mouse assessed as onset time for loss of righting reflex administered 7 to 8 doses at 10 secs for each dose; assay type: functional
[8] = Toxicity in iv dosed ICR mouse administered 7 to 8 doses at 10 secs for each dose; assay type: organism-based; settings: in vivo
Mus musculus [9] = assay: Anesthetic activity in mouse model assessed as loss of righting reflex; assay type: functional
[10] = Therapeutic index, ratio of LD50 for toxicity in mouse to ED50 for anesthetic effect in mouse
Mus musculus [11] = assay: Anesthetic activity in iv dosed ICR mouse assessed as loss of righting reflex administered 7 to 8 doses at 10 secs for each dose; assay type: functional
Rattus norvegicus [12] = organism: Rattus norvegicus; settings: in vivo, iv, 1 mg/kg
[13] = Volume of distribution at steady state in Sprague-Dawley rat at 1 mg/kg, iv by LC-MS/MS analysis; assay type: ADME, organism-based; settings: in vivo, read-out: Vdss
Rattus norvegicus [14] = assay: Cmax in Sprague-Dawley rat at 1 mg/kg, iv by LC-MS/MS analysis; assay type: ADME, organism-based; set-up: dose 1 mg/kg, route intravenous; settings: in vivo
[15] = Toxicity in mouse; assay type: organism-based; settings: in vivo
[16] = Clearance in Sprague-Dawley rat at 1 mg/kg, iv by LC-MS/MS analysis; assay type: ADME, organism-based; settings: in vivo
Rattus norvegicus [17] = assay: Half life in Sprague-Dawley rat at 1 mg/kg, iv by LC-MS/MS analysis; assay type: ADME, organism-based; settings: in vivo

SMILES	Time (Mus musculus [1])	inhibition (Rattus norvegicus [2])	inhibition (Rattus norvegicus [3])	Activity (Mus musculus [4])	inhibition (Rattus norvegicus [5])	Time (Mus musculus [6])	Time (Mus musculus [7])	LD50 at 10 s [8]	ED50 (Mus musculus [9])	Ratio LD50/ED50 [10]	ED50 (Mus musculus [11])	AUCt (Rattus norvegicus [12])	Vd [13]	Cmax (Rattus norvegicus [14])	LD50 [15]	clearance [16]	t1/2 (Rattus norvegicus [17])
CCC(C)c1cccc(C(C)C2CC2)c1O (racemic)	130.71 s	Dose-dependent effect	74%	20 mg/kg	-3%	418.14 s	<10 s										
CC(c1cccc(C(C)C2CC2)c1O)C1CC1 (racemic)	233.83 s	Dose-dependent effect	91%		13%	563.63 s	<10 s	> 15 mg/kg									
C[C@H](c1cccc([C@H](C)C2CC2)c1OCOP(=O)([O-])[O-])C1CC1.[Na+].[Na+]									35.8 mg/kg	4							
COc1cccc(C(C)C2CC2)c1O (racemic)	79 s					364.14 s	<10 s				7.4 mg/kg						
CC(C)c1cccc(C(C)C2CC2)c1O (racemic)	78 s	Dose-dependent effect	3%	10 mg/kg		518.5 s	<10 s										
CC(C)c1cccc(C(C)C)c1O [PROPOFOL]	50 s	Dose-dependent effect	10%	25 mg/kg		303.2 s	<10 s					76.9 ng·h/mL	5.23 L/kg	384 ng/mL			
CCC(c1cccc(C(C)C)c1O)C1CC1 (racemic)	50.38 s					523.57 s	13.6 s	53.2 mg/kg			6.2 mg/kg						
CC(C)c1cccc([C@@H](C)C2CC2)c1OCOP(=O)([O-])[O-].[Na+].[Na+]									82.7 mg/kg	4.5							
CC[C@@H](C)c1cccc([C@H](C)CC)c1O	39.83 s	Dose-dependent effect	29%	10 mg/kg	0%	459.83 s	18 s	23.8 mg/kg			2.69 mg/kg						
CC(C)c1cccc(C(C)C2CCCC2)c1O (racemic)	441.6 s			40 mg/kg		737.33 s	5 s	115 mg/kg			19.9 mg/kg						
CC(c1cccc(C(C2CC2)C2CC2)c1O)C1CC1 (racemic)	326.5 s			20 mg/kg		761.33 s	<10 s	98.2 mg/kg			9.8 mg/kg						
CC[C@H](C)c1cccc([C@H](C)C2CC2)c1OCOP(=O)([O-])[O-].[Na+].[Na+]									24.3 mg/kg	3.8					91.8 mg/kg		
CC(C)c1cccc(C(C)C2CCC2)c1O (racemic)	46 s					364 s	43.5 s	40 mg/kg									
CC(c1cccc(C2CC2)c1O)C1CC1 (racemic)	193.63 s					500.67 s	<10 s	80 mg/kg			14.6 mg/kg						
C[C@H](c1cccc([C@@H](C)C2CC2)c1OCOP(=O)([O-])[O-])C1CC1.[Na+].[Na+]									94.7 mg/kg	2.9							
CC(C)c1cccc([C@@H](C)C2CC2)c1O	168.33 s	Dose-dependent effect	9%	30 mg/kg	3%	344 s	5.71 s	50 mg/kg			7.9 mg/kg						
CC[C@@H](C)c1cccc([C@H](C)C2CC2)c1OCOP(=O)([O-])[O-].[Na+].[Na+]									15.9 mg/kg	4					63.7 mg/kg		

SMILES	Time (Mus musculus [1])	inhibition (Rattus norvegicus [2])	inhibition (Rattus norvegicus [3])	Activity (Mus musculus [4])	inhibition (Rattus norvegicus [5])	Time (Mus musculus [6])	Time (Mus musculus [7])	LD50 at 10 s [8]	ED50 (Mus musculus [9])	Ratio LD50/ED50 [10]	ED50 (Mus musculus [11])	AUCt (Rattus norvegicus [12])	Vd [13]	Cmax (Rattus norvegicus [14])	LD50 [15]	clearance [16]	t1/2 (Rattus norvegicus [17])
CCC(c1cccc(C(C)C2CC2)c1O)C1CC1 (racemic)	205.8 s			20 mg/kg		670.13 s	7.5 s	74.7 mg/kg			9 mg/kg						
CC(c1cccc(C2(C)CC2)c1O)C1CC1 (racemic)	306.13 s			45 mg/kg		365.75 s	9.5 s	40 mg/kg									
CC[C@@H](C)c1cccc([C@@H](C)C2CC2)c1O	192.33 s	Dose-dependent effect	63%	4 mg/kg	-1%	418 s	<10 s	8.3 mg/kg			1.3 mg/kg						
CC[C@H](C)c1cccc([C@H](C)C2CC2)c1O	363.67 s	Dose-dependent effect	34%	20 mg/kg	-9%	545 s	<10 s	65.4 mg/kg									
CC[C@@H](C)c1cccc([C@H](C)C2CC2)c1O	391.29 s	Dose-dependent effect	87%	7.5 mg/kg	23%	471.88 s	<10 s	14.3 mg/kg			2 mg/kg	78.1 ng·h/mL	3.23 L/kg	575 ng/mL		208 mL/min/kg	22 min
C[C@H](c1cccc([C@@H](C)C2CC2)c1O)C1CC1	150.8 s	Dose-dependent effect	35%	40 mg/kg		567.33 s	7 s	149 mg/kg			19.5 mg/kg						
CC(c1ccccc1O)C1CC1 (racemic)	329.6 s			30 mg/kg		598 s	<10 s	64.8 mg/kg			14 mg/kg						
Cc1cccc(C(C)C2CC2)c1O (racemic)	122 s					198.33 s	<10 s	54.9 mg/kg			7.4 mg/kg						
CC(C)c1cccc([C@@H](C)C2CCC2)c1O	191.8 s			100 mg/kg		450.43 s	15.63 s	107 mg/kg									
C[C@@H](c1cccc([C@H](C)C2CC2)c1O)C1CC1	61.67 s	Dose-dependent effect	96%	5 mg/kg	64%	318.43 s	<10 s					170 ng·h/mL	1.92 L/kg	713 ng/mL		95 mL/min/kg	31 min
CCc1cccc(C(C)C2CC2)c1O (racemic)	226.57 s					409.57 s	<10 s	57.1 mg/kg			7.7 mg/kg						
C[C@H](c1cccc([C@H](C)C2CC2)c1O)C1CC1	24.5 s	Dose-dependent effect	78%	20 mg/kg	-5%	492.17 s	<10 s	43.6 mg/kg			5.9 mg/kg						
CC[C@H](C)c1cccc([C@@H](C)C2CC2)c1O	224 s	Dose-dependent effect	47%	10 mg/kg	5%	643.4 s	<10 s										
CC(C)c1cccc([C@H](C)C2CC2)c1O [CIPEPOFOL]	64.8 s	Dose-dependent effect	85%	4.8 mg/kg	34%	313.43 s	21.86 s					164 ng·h/mL	2.02 L/kg	834 ng/mL		100 mL/min/kg	28 min
CC(C)c1cccc(C(C2CC2)C2CC2)c1O	220.17 s			50 mg/kg		2616.4 s	<10 s	> 100 mg/kg									
CC(C)c1cccc([C@H](C)C2CCC2)c1O	89.11 s					443.5 s	<10 s										
